In this test the test system is Candida albicans. As to the kind of experiment: Antifungal activity against Candida albicans ATCC 10231 after 24 hrs by broth microdilution method. The settings on record: ATCC 10231, 24 h.

Values after ≈ are worked out from the molar mass of the structure shown.

10 compounds from ChEMBL document CHEMBL1156571, “ent-kaurane diterpenoids from the liverwort Jungermannia atrobrunnea” (2008) can be followed below.

What is called MIC is the smallest concentration in the dilution series that meets the test's criterion for growth inhibition. A high value points to a need for much substance.

With `C=C1[C@@H]2CC=C3[C@](C2)(C[C@H](O)[C@@H]2C(C)(C)CCC[C@@]32C)[C@@H]1OC(C)=O`, the minimal inhibitory concentration (MIC) came out at 128 µg/mL (≈ 372 µM).
Compound `C=C1C(=O)[C@@H]2C3=C(C[C@H](OC(C)=O)[C@@H]4C(C)(C)CC[C@H](OC(C)=O)[C@@]34C)C[C@H]1[C@@H]2O` returned an MIC of 128 µg/mL (≈ 307 µM).
The value for `C=C1C(=O)[C@@H]2C3=C(C[C@H]1[C@@H]2O)C[C@H](O)[C@@H]1C(C)(C)CC[C@H](OC(C)=O)[C@@]31C` was 128 µg/mL (≈ 342 µM); that for `C=C1C(=O)[C@]23C[C@H]1C(=O)C=C2[C@]1(C)[C@@H](OC(C)=O)CCC(C)(C)[C@H]1[C@@H](OC(C)=O)C3` was 128 µg/mL (≈ 309 µM).
On to `C=C1C(=O)[C@@]23C[C@H](OC(C)=O)[C@@H]4C(C)(C)CC[C@H](OC(C)=O)[C@@]4(C)C2=C[C@@H](O)[C@@H]1C3`, for which the MIC was determined as 128 µg/mL (≈ 307 µM).
With `C=C1C(=O)[C@@]23C[C@H](OC(C)=O)[C@@H]4C(C)(C)CC[C@H](O)[C@@]4(C)C2=C[C@@H](O)[C@@H]1C3` the figure was 128 µg/mL (≈ 342 µM); with `CC(=O)O[C@H]1C[C@@]23C[C@@H](C(=O)C=C2[C@]2(C)[C@@H](OC(C)=O)CCC(C)(C)[C@@H]12)[C@@H](C)C3=O`, 128 µg/mL (≈ 307 µM).
In the case of `C=C1[C@H]2C[C@@]3(C[C@H](OC(C)=O)[C@@H]4C(C)(C)CCC[C@@]4(C)C3=CC2=O)[C@@H]1OC(C)=O`, it took 128 µg/mL (≈ 320 µM) to inhibit growth (MIC).
With `C=C1[C@@H]2CC=C3[C@](C2)(C[C@H](OC(C)=O)[C@@H]2C(C)(C)CCC[C@@]32C)[C@@H]1OC(C)=O` the figure was 128 µg/mL (≈ 331 µM); with `C=C1[C@H]2CC3=C[C@H](OC(C)=O)[C@@H]4C(C)(C)CC[C@H](OC(C)=O)[C@@]4(C)[C@@]34OO[C@]1(O)[C@H]4[C@H]2O` [JUNGERMATROBRUNIN A], 128 µg/mL (≈ 285 µM).
